System: DLD-1 BRCA2−/− cells
Assay: Homologous recombination synthetic lethal inhibition of proliferation, DLD-1 BRCA2-/- (Cell Titre Glo 3D)
Format: cell-based
Conditions: Homo sapiens, DLD-1, DLD-1 BRCA2 −/− cells; mean; read-out: POLQ PD Prolif Lumin BRCA2 −/− mean pIC50 (converted)
How it was run: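 Isogenic DLD-1 pair; BRCA2−/− seeded 3,000 cells/mL and read day 12, wt seeded 1,500 cells/mL and read day 7. 10-pt titration (top 10 μM, 3-fold), re-fed with compound day 6, 37 °C/5% CO2. CTG 3D endpoint; IC50 at 50% signal loss.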

Compound | IC50 [nM]
CC1(Oc2ncnc3c2nc(-c2ccc(CC(N)=O)cc2Cl)n3Cc2ccnc(C#N)c2)CC1 [Example T40, 2-(3-chloro-4-(9-((2-cyanopyridin-4-yl)methyl)-6-(1-methylcyclopropoxy)-9H-purin-8-yl)phenyl)acetamide] | 5010
CC1(Oc2ncnc3c2nc(-c2ccc(CC(N)=O)cc2Cl)n3Cc2cccc(F)c2)CC1 [Example T42, 2-(3-chloro-4-(9-(3-fluorobenzyl)-6-(1-methylcyclopropoxy)-9H-purin-8-yl)phenyl)acetamide] | 158
CC1(Oc2ncnc3c2nc(-c2ccc(CC(N)=O)cc2Cl)n3Cc2ccc(F)cc2)CC1 [Example T43, 2-(3-chloro-4-(9-(4-fluorobenzyl)-6-(1-methylcyclopropoxy)-9H-purin-8-yl)phenyl)acetamide] | 631
CC1(Oc2ncnc3c2nc(-c2ccc(OCCO)cc2Cl)n3Cc2cc(C(F)(F)F)ccn2)CC1 [Example T44, 2-(3-chloro-4-(6-(1-methylcyclopropoxy)-9-((4-(trifluoromethyl)pyridin-2-yl)methyl)-9H-purin-8-yl)phenoxy)ethan-1-ol] | 251
CC1(Oc2ncnc3c2nc(-c2ccc(CC(N)=O)cc2Cl)n3Cc2cccc(Cl)c2)CC1 [Example T45, 2-(3-chloro-4-(9-(3-chlorobenzyl)-6-(1-methylcyclopropoxy)-9H-purin-8-yl)phenyl)acetamide] | 50.1
CC1(Oc2ncnc3c2nc(-c2ccc(CC(N)=O)cc2Cl)n3CCc2cccc(Br)n2)CC1 [Example T46, 2-(4-(9-(2-(6-bromopyridin-2-yl)ethyl)-6-(1-methylcyclopropoxy)-9H-purin-8-yl)-3-chlorophenyl)acetamide] | > 10000
Cc1ccnc(Cn2c(-c3ccc(OCC(F)F)cc3Cl)nc3c(OC4(C)CC4)ncnc32)c1 [Example T47, 8-(2-chloro-4-(2,2-difluoroethoxy)phenyl)-6-(1-methylcyclopropoxy)-9-((4-methylpyridin-2-yl)methyl)-9H-purine] | 200
CC1(Oc2ncnc3c2nc(-c2ccc(CC(N)=O)cc2Cl)n3Cc2ccccc2)CC1 [Example T48, 2-(4-(9-benzyl-6-(1-methylcyclopropoxy)-9H-purin-8-yl)-3-chlorophenyl)acetamide] | 200
CNC(=O)COc1ccc(-c2nc3c(OC4(C)CC4)ncnc3n2Cc2cc(Cl)ccn2)c(Cl)c1 [Example T51, 2-(3-chloro-4-(9-((4-chloropyridin-2-yl)methyl)-6-(1-methylcyclopropoxy)-9H-purin-8-yl)phenoxy)-N-methylacetamide] | 158
CNC(=O)c1ccc(Cl)c(-c2nc3c(OC4(C)CC4)ncnc3n2Cc2cc(C)ccn2)c1 [Example T54, 4-chloro-N-methyl-3-(6-(1-methylcyclopropoxy)-9-((4-methylpyridin-2-yl)methyl)-9H-purin-8-yl)benzamide] | > 10000
CNC(=O)c1cccc(-c2nc3c(OC4(C)CC4)ncnc3n2Cc2cc(C)ccn2)c1Cl [Example T55, 2-chloro-N-methyl-3-(6-(1-methylcyclopropoxy)-9-((4-methylpyridin-2-yl)methyl)-9H-purin-8-yl)benzamide] | 631
Cc1ccnc(Cn2c(-c3cc(CC(N)=O)ccc3Cl)nc3c(OC4(C)CC4)ncnc32)c1 [Example T57, 2-(4-chloro-3-(6-(1-methylcyclopropoxy)-9-((4-methylpyridin-2-yl)methyl)-9H-purin-8-yl)phenyl)acetamide] | > 10000
Cc1cc(Cn2c(-c3ccc(CC(N)=O)cc3Cl)nc3c(OC4(C)CC4)ncnc32)ccn1 [Example T58, 2-(3-chloro-4-(6-(1-methylcyclopropoxy)-9-((2-methylpyridin-4-yl)methyl)-9H-purin-8-yl)phenyl)acetamide] | > 10000
Cc1cccc(Cn2c(-c3ccc(CC(N)=O)cc3Cl)nc3c(OC4(C)CC4)ncnc32)n1 [Example T59, 2-(3-chloro-4-(6-(1-methylcyclopropoxy)-9-((6-methylpyridin-2-yl)methyl)-9H-purin-8-yl)phenyl)acetamide] | 2510
Cc1ncccc1Cn1c(-c2ccc(CC(N)=O)cc2Cl)nc2c(OC3(C)CC3)ncnc21 [Example T60, 2-(3-chloro-4-(6-(1-methylcyclopropoxy)-9-((2-methylpyridin-3-yl)methyl)-9H-purin-8-yl)phenyl)acetamide] | 10000
Cc1ccnc(Cn2c(-c3ccc(OCC(N)=O)cc3Cl)nc3c(OC4(C)CC4)ncnc32)c1 [Example T61, 2-(3-chloro-4-(6-(1-methylcyclopropoxy)-9-((4-methylpyridin-2-yl)methyl)-9H-purin-8-yl)phenoxy)acetamide] | 251
COC(=O)Nc1ccc(-c2nc3c(OC4(C)CC4)ncnc3n2Cc2cc(C)ccn2)c(Cl)c1 [Example T62, methyl (3-chloro-4-(6-(1-methylcyclopropoxy)-9-((4-methylpyridin-2-yl)methyl)-9H-purin-8-yl)phenyl)carbamate] | 251
COc1ccnc(Cn2c(-c3ccc(CC(N)=O)cc3Cl)nc3c(OC4(C)CC4)ncnc32)c1 [Example T63, 2-(3-chloro-4-(9-((4-methoxypyridin-2-yl)methyl)-6-(1-methylcyclopropoxy)-9H-purin-8-yl)phenyl)acetamide] | 1000
Cc1ccnc(Cn2c(-c3ccc(CCO)cc3Cl)nc3c(OC4(C)CC4)ncnc32)c1 [Example T65, 2-(3-chloro-4-(6-(1-methylcyclopropoxy)-9-((4-methylpyridin-2-yl)methyl)-9H-purin-8-yl)phenyl)ethan-1-ol] | 251
CNC(=O)Nc1ccc(-c2nc3c(OC4(C)CC4)ncnc3n2Cc2cc(C)ccn2)c(Cl)c1 [Example T66, 1-(3-chloro-4-(6-(1-methylcyclopropoxy)-9-((4-methylpyridin-2-yl)methyl)-9H-purin-8-yl)phenyl)-3-methylurea] | 398
CC1(Oc2ncnc3c2nc(-c2ccc(CC(N)=O)cc2Cl)n3Cc2noc(C(C)(C)C)n2)CC1 [Example T71, 2-(4-(9-((5-(tert-butyl)-1,2,4-oxadiazol-3-yl)methyl)-6-(1-methylcyclopropoxy)-9H-purin-8-yl)-3-chlorophenyl)acetamide] | 7940
CC1(Oc2ncnc3c2nc(-c2ccc(CC(N)=O)cc2Cl)n3Cc2cc(C#N)ccc2F)CC1 [Example T77, 2-(3-chloro-4-(9-(5-cyano-2-fluorobenzyl)-6-(1-methylcyclopropoxy)-9H-purin-8-yl)phenyl)acetamide] | 158
CC1(Oc2ncnc3c2nc(-c2ccc(CC(N)=O)cc2Cl)n3Cc2ccc(F)cc2C#N)CC1 [Example T78, 2-(3-chloro-4-(9-(2-cyano-4-fluorobenzyl)-6-(1-methylcyclopropoxy)-9H-purin-8-yl)phenyl)acetamide] | 5010
CC1(Oc2ncnc3c2nc(-c2ccc(CC(N)=O)cc2Cl)n3Cc2cc(F)ccc2C#N)CC1 [Example T79, 2-(3-chloro-4-(9-(2-cyano-5-fluorobenzyl)-6-(1-methylcyclopropoxy)-9H-purin-8-yl)phenyl)acetamide] | 158
CC1(Oc2ncnc3c2nc(-c2ccc(CC(N)=O)cc2Cl)n3Cc2cccc(C#N)c2)CC1 [Example T81, 2-(3-chloro-4-(9-(3-cyanobenzyl)-6-(1-methylcyclopropoxy)-9H-purin-8-yl)phenyl)acetamide] | 200

— patent US20250195530A1, “POLQ INHIBITORS” (ASTRAZENECA AB, priority 2022, published 2025)
